Where two headings read alike, the source gives them in different places.
Target: BTK (Homo sapiens, UniProt Q06187)
Assay: biochemical
[1] = read-out: BTK inhibition (%), 0.75 uM BTK, […] probe 3l, 15 min preincubation

Sequence of BTK (Q06187 402-655 limits assumed): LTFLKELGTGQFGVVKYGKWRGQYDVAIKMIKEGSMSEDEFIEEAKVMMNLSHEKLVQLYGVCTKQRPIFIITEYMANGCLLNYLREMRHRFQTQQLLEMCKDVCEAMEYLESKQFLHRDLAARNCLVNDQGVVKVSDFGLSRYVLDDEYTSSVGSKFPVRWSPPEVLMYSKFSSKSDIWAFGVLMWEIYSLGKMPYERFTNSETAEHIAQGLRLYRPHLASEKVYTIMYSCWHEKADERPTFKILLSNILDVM

| Compound | inhibition at 10 µM [1] [%] | inhibition at 10 µM (read-out: BTK inhibition (%)) [%] |
| --- | --- | --- |
| Cc1cccc(-c2[nH]c(C(C)(C)C)nc2-c2ccc3nccnc3c2)n1 [PCM-0065614] | 25.5 |  |
| COc1cc(-c2ncn(/C=C\C(=O)OC(C)C)n2)cc(C(F)(F)F)c1 [PCM-0215247] | -11.6 |  |
| O=C1/C(=C/c2cccs2)CC/C1=C\c1cccs1 [PCM-0215307] | 6 |  |
| C/C1=C\CC[C@H](C)C(=O)C[C@@H](C(C)C)C(=O)C1 [PCM-0216439] | -3.9 |  |
| O=c1ccc2ccc(O)c(O)c2o1 [PCM-0065041] | 15.9 |  |
| Cc1ccc(C(=O)Nc2cccc(C(F)(F)F)c2)cc1Nc1nc(-c2cccnc2)nc2c1cnn2C [PCM-0095241] | 4.8 |  |
| O=c1c(O)c(-c2ccc(O)c(O)c2)oc2cc(O)ccc12 [PCM-0094846] | 46.7 |  |
| CN[C@@H]1[C@H](O[C@H]2[C@H](O[C@H]3[C@H](O)[C@@H](O)[C@H](N=C(N)N)[C@@H](O)[C@@H]3N=C(N)N)O[C@@H](C)[C@]2(O)C=O)O[C@@H](CO)[C@H](O)[C@H]1O [PCM-0215192] | -10.2 |  |
| N#Cc1cnc(Nc2cc(NC[C@H]3CNCCO3)c(C(F)(F)F)cn2)cn1 [PCM-0214576] | -0.7 |  |
| O=c1[nH]c(=O)n([C@H]2C[C@H](O)[C@@H](CO)O2)cc1Br [PCM-0215515] | 3.9 |  |
| Cc1c(C(=O)NN2CCCCC2)nn(-c2ccc(Cl)cc2Cl)c1-c1ccc(Cl)cc1 [PCM-0095470] | 42 |  |
| CCC(C)n1ncn(-c2ccc(N3CCN(c4ccc(OC[C@H]5CO[C@](Cn6cncn6)(c6ccc(Cl)cc6Cl)O5)cc4)CC3)cc2)c1=O (stereo partly drawn) [PCM-0090573] | -13.6 |  |
| CC1=CC(=O)[C@H]2C[C@@H]1C2(C)C [PCM-0216612] | 7.7 |  |
| Cc1cccc(CC(=O)N2CCc3c2ccc(-c2cn(C)c4ncnc(N)c24)c3F)n1 [PCM-0095729] | -9 |  |
| C[C@H]1O[C@@H](O[C@H]2CC[C@@]3(C)[C@@H](CC[C@]4(C)[C@@H]3C=C[C@]35OC[C@@]6(CCC(C)(C)C[C@H]63)[C@@H](O)C[C@]54C)[C@]2(C)CO)[C@H](O)[C@@H](O[C@@H]2O[C@H](CO)[C@@H](O)[C@H](O)[C@H]2O)[C@H]1O [PCM-0216249] | -23.4 |  |
| CCCCCCCCCCCCCCCCCCCC(=O)O [PCM-0216199] | 9.3 |  |
| CCCC[C@H](CC)COC(=O)/C=C/c1ccc(OC)cc1 [PCM-0090405] | 6.2 |  |
| O=C1O[C@H]([C@@H](O)CO)C(O)=C1OP(=O)(O)O [PCM-0215970] | -4.3 |  |
| O=c1[nH]c(=O)n([C@H]2C[C@H](O)[C@@H](CO)O2)cc1I [PCM-0085786] | -27.2 |  |

| Compound | inhibition at 10 µM [1] [%] | inhibition at 10 µM (read-out: BTK inhibition (%)) [%] |
| --- | --- | --- |
| COc1cc(OC)c(NC(=O)Nc2cc(C)on2)cc1Cl [PCM-0095491] | 10.9 |  |
| CC1=CC(=O)NS(=O)(=O)O1 [PCM-0090549] | -14 |  |
| Cc1c(C(=O)Nc2ccc(N3CCC(N4CCOCC4)CC3)c(C#N)c2)cnn1-c1ccc(Cl)cc1 [PCM-0215293] | -11.7 |  |
| C[C@@H]1O[C@@H](O[C@H]2[C@H](O)[C@@H](O)[C@H](OC[C@H]3O[C@@H](OC(=O)[C@]45CCC(C)(C)C[C@H]4C4=CC[C@@H]6[C@@]7(C)CC[C@H](O[C@@H]8OC[C@H](O)[C@H](O)[C@H]8O)[C@@](C)(CO)[C@@H]7CC[C@@]6(C)[C@]4(C)CC5)[C@H](O)[C@@H](O)[C@@H]3O)O[C@@H]2CO)[C@H](O)[C@H](O)[C@H]1O [PCM-0216340] | -10.2 |  |
| C=C1[C@H]2C[C@@]3([C@@H]1O)[C@@H](CC2=O)[C@]12[C@@H]4C[C@H]3[C@H]1N(CC)C[C@]4(C)CC[C@@H]2O [PCM-0216364] | 19.3 |  |
| O=C(Nc1cc(Cl)cc2c1[nH]c1cnccc12)c1cccnc1 [PCM-0215579] | 12.4 |  |
| CC(=O)OCC1=C(C(=O)O)N2C(=O)[C@@H](N)[C@H]2SC1 [PCM-0215190] | -8.5 |  |
| C[C@]1(c2nc3c(C(N)=O)cccc3[nH]2)CCCN1 [PCM-0094885] | -6.2 |  |
| NC[C@H]1O[C@H](O[C@H]2[C@H](O)[C@@H](O[C@H]3O[C@H](CO)[C@@H](O)[C@H](N)[C@H]3O)[C@H](N)C[C@@H]2N)[C@H](N)C[C@@H]1O [PCM-0086125] | -14.5 |  |
| COc1ccc(-c2cc(=O)c3c(O)cc(O[C@@H]4O[C@H](CO)[C@@H](O)[C@H](O)[C@H]4O[C@@H]4O[C@@H](C)[C@H](O)[C@@H](O)[C@H]4O)cc3o2)cc1O [PCM-0216549] | 1.5 |  |
| COc1cccc(-n2c(=O)[nH]c3cc(Cl)n(-c4ccc(-c5cccc(OC)c5O)cc4)c3c2=O)c1 [PCM-0215555] | 99.3 |  |
| COc1cc(-n2c(=S)[nH]c3ccccc3c2=O)c(Cl)cc1Cl [PCM-0095750] | 29.3 |  |
| C[C@H]1[C@H](OC(=O)CCC(=O)O)O[C@@H]2O[C@@]3(C)CC[C@H]4[C@H](C)CC[C@@H]1[C@@]24OO3 [PCM-0214643] | 6.2 |  |
| Cc1cn([C@@H]2C[C@@H](O)[C@H](CO)O2)c(=O)[nH]c1=O [PCM-0095099] | -6.2 |  |
| COc1cc(Nc2nc3ccccc3nc2NS(=O)(=O)c2ccc(NC(=O)c3ccc(C)c(OC)c3)cc2)cc(OC)c1 [PCM-0095193] | -17.9 |  |
| CC(C(=O)O)C(=O)O [PCM-0214910] |  | -6.2 |
| C[C@@H]1O[C@@H](OC[C@H]2O[C@@H](Oc3cc(O)c4c(=O)cc(-c5ccc(O)cc5)oc4c3)[C@H](O[C@@H]3O[C@@H](C)[C@H](O)[C@@H](O)[C@H]3O)[C@@H](O)[C@@H]2O)[C@H](O)[C@H](O)[C@H]1O [PCM-0216389] | 13.9 |  |
| C=C1C[C@@]23CC[C@H]4[C@@](C)(CCC[C@@]4(C)C(=O)O[C@@H]4O[C@H](CO)[C@@H](O)[C@H](O)[C@H]4O)[C@@H]2CC[C@]1(O[C@@H]1O[C@H](CO)[C@@H](O)[C@H](O[C@@H]2O[C@H](CO)[C@@H](O)[C@H](O)[C@H]2O)[C@H]1O[C@@H]1O[C@@H](C)[C@H](O)[C@@H](O)[C@H]1O)C3 [PCM-0214859] | -14.8 |  |

Continued, in another order:

| inhibition at 10 µM [1] [%] | Compound | inhibition at 10 µM (read-out: BTK inhibition (%)) [%] |
| --- | --- | --- |
| -10 | NCCCC[C@@H]1NC(=O)[C@@H](Cc2ccccc2)NC(=O)[C@H](CC(=O)O)NC(=O)CNC(=O)[C@H](CCCN=C(N)N)NC1=O [PCM-0215471] |  |
| -17.2 | Nc1c(CC(=O)O)cccc1C(=O)c1ccccc1 [PCM-0214756] |  |
| 9.7 | O=C(c1cc(Cc2n[nH]c(=O)c3ccccc23)ccc1F)N1CCN(C(=O)C2CC2)CC1 [PCM-0094988] |  |
| 2.1 | Cc1cc(C(=O)NOCCO)c(Nc2ccc(I)cc2F)n(C)c1=O [PCM-0095312] |  |
| 85.6 | COC1=CC(=O)c2ccccc2C1=O [PCM-0214886] |  |
| 28 | CO/N=C(\C(=O)N[C@@H]1C(=O)N2C(C(=O)OCOC(=O)C(C)(C)C)=C(/C=C\c3scnc3C)CS[C@H]12)c1csc(N)n1 [PCM-0214651] |  |
| 13.8 | CCOC(=O)O[C@]1(C(=O)OCCl)CC[C@H]2[C@@H]3CCC4=CC(=O)C=C[C@]4(C)[C@H]3[C@@H](O)C[C@@]21C [PCM-0095115] |  |
| 3.9 | Cc1cnc(-c2ccccc2C(C)C)nc1NCc1ccc(-n2ccnn2)cc1 [PCM-0095782] |  |
| 6.9 | COc1ccc(C(=O)Nc2sc3c(c2C(N)=O)CCCC3)cc1OC [PCM-0095611] |  |
| 19.3 | CN(CC(=O)N(Cc1ccc(C2CCCCC2)cc1)c1ccc(C(=O)NO)cc1)S(=O)(=O)c1c(F)c(F)c(F)c(F)c1F [PCM-0215779] |  |
| -12.8 | CCCCCCCCCCCCOC(=O)CS(=O)(=O)O [PCM-0215935] |  |
| -2.1 | C[C@H](C(=O)O)c1ccc(-c2ccccc2)c(F)c1 [PCM-0095117] |  |
| -10 | O=C(O)[C@H](O)c1ccccc1 [PCM-0216338] |  |
| 15.2 | CNC(=O)c1cc(COc2nnc(Nc3ccc(Cl)cc3)c3ccoc23)ccn1 [PCM-0095270] |  |
| 3.9 | CC(C)N(CC[C@H](c1ccccc1)c1cc(CO)ccc1O)C(C)C [PCM-0095530] |  |
| -9.7 | O=c1c(-c2ccc(O[C@@H]3O[C@H](CO)[C@@H](O)[C@H](O)[C@H]3O)cc2)coc2cc(O)cc(O)c12 [PCM-0215108] |  |

| inhibition at 10 µM [1] [%] | Compound | inhibition at 10 µM (read-out: BTK inhibition (%)) [%] |
| --- | --- | --- |
| -23.3 | CCCCCC(=O)O[C@]1(C(C)=O)CC[C@H]2[C@@H]3CCC4=CC(=O)CC[C@]4(C)[C@H]3CC[C@@]21C [PCM-0214832] |  |
| -9.7 | COc1ccc(F)c(F)c1C(=O)c1cnc(NC2CCN(S(C)(=O)=O)CC2)nc1N [PCM-0095383] |  |
| 6.9 | Cc1ccc(Nc2c(F)cccc2Cl)c(CC(=O)O)c1 [PCM-0090280] |  |
| 37.9 | N#Cc1c(Oc2ccc(F)c(NC(=O)Cc3cccc(C(F)(F)F)c3)c2)ccc2nc(NC(=O)C3CC3)sc12 [PCM-0215264] |  |
| 79.3 | Cc1nc(Nc2ccc(F)cc2)nc(N2CCc3ccccc3C2C)c1C (stereo not drawn) [PCM-0216015] |  |
| -3.9 | O=c1[nH]c(=O)n([C@H]2C[C@H](O)[C@@H](CO)O2)cc1F [PCM-0086169] |  |
| 61.4 | CC(C)(C)c1cc(NC(=O)Nc2ccc(Oc3ccnc4[nH]c(=O)cnc34)cc2F)n(-c2ccccc2)n1 [PCM-0215780] |  |
| 17.2 | CN1CCN(C2CCN(C(=O)Nc3cc(Oc4ccc(NC(=O)C5(C(=O)Nc6ccc(F)cc6)CC5)c(F)c4)ccn3)CC2)CC1 [PCM-0095502] |  |
| -4.6 | O=C(O)c1ccc(O)c2ncccc12 [PCM-0215316] |  |
| 17 | CNCc1cc(-c2ccccc2F)n(S(=O)(=O)c2cccnc2)c1 [PCM-0095606] |  |
| -10 | CN(CCN1CCC(OC(=O)Nc2ccccc2-c2ccccc2)CC1)C(=O)c1ccc(CN2CCC(C(N)=O)CC2)cc1 [PCM-0216137] |  |
| 4.6 | CC(OC(=O)OC1CCCCC1)OC(=O)C1=C(CSc2nnnn2CCN(C)C)CS[C@@H]2[C@H](NC(=O)Cc3csc(N)n3)C(=O)N12 (stereo partly drawn) [PCM-0216590] |  |
| 24.1 | CCOc1nc2cccc(C(=O)O)c2n1Cc1ccc(-c2ccccc2-c2nn[nH]n2)cc1 [PCM-0086226] |  |
| -11.7 | CC(=O)OCC(=O)[C@H]1CC[C@H]2[C@@H]3CCC4=CC(=O)CC[C@]4(C)[C@H]3CC[C@]12C [PCM-0214761] |  |
| 6.2 | CS(=O)(=O)c1ccc(C(=O)Nc2ccc(Cl)c(-c3ccccn3)c2)c(Cl)c1 [PCM-0095048] |  |
| -3.9 | Nc1ccccc1NC(=O)c1cnccn1 [PCM-0215479] |  |
